Measured values as given in ChEMBL document CHEMBL5252667, “Discovery and Optimization of a Novel Macrocyclic Amidinourea Series Active as Acidic Mammalian Chitinase Inhibitors” (ACS Med Chem Lett, 2023).
Values after ≈ are worked out from the molar mass of the structure shown.

What was measured:
[1] = Aqueous solubility of the compound by HPLC-UV/MS analysis; format: physicochemical; details: water (aqueous)
[2] = Apparent permeability of compound in phosphate buffer by PAMPA assay; format: ADME
[3] = Metabolic stability in human liver microsomes assessed as parent compound remaining in the presence of NADPH generating system by HPLC-UVMS analysis; format: ADME, Microsome
[4] = test system: Candida; assay: Antifungal activity against Candida spp.; format: functional
[5] = target: Acidic mammalian chitinase (Homo sapiens, UniProt Q9BZP6); assay: (§1) Inhibition of human AMCase using 4-methylumbelliferyl-beta-D-N,N',N''-triacetylchitotriose as substrate assessed as substrate hydrolysis by measuring inhibition constant preincubated with compound for 20 mins and measured immediately after substrate addition by fluorescence based assay
Chain of Acidic mammalian chitinase (Q9BZP6 whole entry): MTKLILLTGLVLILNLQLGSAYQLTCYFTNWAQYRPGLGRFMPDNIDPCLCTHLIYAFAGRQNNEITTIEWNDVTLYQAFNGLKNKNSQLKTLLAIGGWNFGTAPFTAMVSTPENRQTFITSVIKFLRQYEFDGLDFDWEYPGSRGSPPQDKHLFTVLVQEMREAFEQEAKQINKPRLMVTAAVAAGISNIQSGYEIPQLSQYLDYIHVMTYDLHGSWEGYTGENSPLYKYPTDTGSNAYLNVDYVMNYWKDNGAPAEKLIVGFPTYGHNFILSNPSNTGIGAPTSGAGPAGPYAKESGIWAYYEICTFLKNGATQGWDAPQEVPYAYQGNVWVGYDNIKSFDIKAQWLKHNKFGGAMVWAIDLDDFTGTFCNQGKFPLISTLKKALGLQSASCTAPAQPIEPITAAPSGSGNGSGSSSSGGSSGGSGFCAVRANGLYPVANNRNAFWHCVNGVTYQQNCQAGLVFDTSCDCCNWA

[6] = target: T1, Chitotriosidase-1 (Homo sapiens, UniProt Q13231); assay: as §1, with “CHIT1” for “AMCase”, “assay relative to control” for “assay”
Target sequence in this assay (Q13231 whole entry): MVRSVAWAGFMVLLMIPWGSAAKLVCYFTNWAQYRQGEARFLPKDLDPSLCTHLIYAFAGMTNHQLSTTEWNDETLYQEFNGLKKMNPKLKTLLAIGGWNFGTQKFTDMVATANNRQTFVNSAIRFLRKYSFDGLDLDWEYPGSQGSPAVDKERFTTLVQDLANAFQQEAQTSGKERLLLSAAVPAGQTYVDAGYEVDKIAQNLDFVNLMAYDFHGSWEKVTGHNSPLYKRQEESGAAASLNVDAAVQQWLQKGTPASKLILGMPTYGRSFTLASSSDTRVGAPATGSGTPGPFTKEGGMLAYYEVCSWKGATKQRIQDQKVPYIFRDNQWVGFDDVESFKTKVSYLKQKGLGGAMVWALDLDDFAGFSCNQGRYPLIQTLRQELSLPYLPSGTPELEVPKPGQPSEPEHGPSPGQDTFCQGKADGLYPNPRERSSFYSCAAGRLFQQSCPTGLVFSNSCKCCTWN

[7] = target: T1, Chitotriosidase-1; assay: Inhibition of human CHIT1 using 4-methylumbelliferyl-beta-D-N,N',N''-triacetylchitotriose as substrate assessed as substrate hydrolysis at 10 uM preincubated with compound for 20 mins and measured immediately after substrate addition by fluorescence based assay relative to control
Target sequence in this assay (Q13231 22-466 limits assumed): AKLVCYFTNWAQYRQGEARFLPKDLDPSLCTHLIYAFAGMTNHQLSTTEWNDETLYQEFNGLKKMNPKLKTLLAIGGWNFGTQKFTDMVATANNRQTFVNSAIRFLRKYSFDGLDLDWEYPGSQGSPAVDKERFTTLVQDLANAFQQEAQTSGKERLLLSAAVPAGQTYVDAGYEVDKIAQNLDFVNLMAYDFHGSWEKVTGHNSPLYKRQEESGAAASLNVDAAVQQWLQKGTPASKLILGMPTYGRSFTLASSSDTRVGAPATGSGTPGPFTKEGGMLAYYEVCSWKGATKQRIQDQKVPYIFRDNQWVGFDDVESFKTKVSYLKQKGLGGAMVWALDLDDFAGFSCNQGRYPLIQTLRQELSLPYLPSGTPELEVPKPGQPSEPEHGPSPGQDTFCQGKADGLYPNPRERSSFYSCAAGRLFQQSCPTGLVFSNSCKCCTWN

| solubility [1] [µg/mL] | Papp [2] [×10⁻⁶ cm/s] | Stability [3] [%] | Ki [6] [µM] | SMILES | other results |
| --- | --- | --- | --- | --- | --- |
| 2850 (≈ 4.9 mM) | < 0.5 | 98.5 | – | CNC(=O)NC(=N)NCCCCCCCCN1CCCc2ccc(F)cc2COc2ccccc2CNC(=N)NC1=O | – |
| – | – | – | – | C/C=C/CNC(=N)NCCCCCCCCN1CCCCCCOc2ccccc2CNC(=N)NC1=O | MIC [4]: 1 µg/mL (≈ 0.00195 mM) |
| – | – | – | – | C/C=C/CNC(=N)NCCCCCCCCN1CCCc2ccccc2COc2ccccc2CNC(=N)NC1=O | MIC [4]: 1 µg/mL (≈ 0.00178 mM) |
| – | – | – | – | CNC(=O)NC(=N)NCCCCCCCCN1CCCc2ccc(OC(F)(F)F)cc2COc2ccccc2CNC(=N)NC1=O | Ki [5]: > 50 µM |
| – | – | – | > 50 | CNC(=O)NC(=N)NCCCCCCCCN1CCCCCCCCNC(=N)NC1=O | – |
| – | – | – | – | C/C=C/CNC(=N)NCCCCCCCCN1CCCCCCCCNC(=N)NC1=O | MIC [4]: 1 µg/mL (≈ 0.0023 mM) |
| – | – | – | > 50 | CNC(=O)NC(=N)NCCCCCCCCN1CCCc2ccccc2COc2cc(Cl)ccc2CNC(=N)NC1=O | – |
| 3080 (≈ 5.17 mM) | < 0.5 | 98.7 | – | CNC(=O)NC(=N)NCCCCCCCCN1CCCc2ccccc2COc2ccc(OC)cc2CNC(=N)NC1=O | – |
| – | – | – | 0.0014 | Cn1cnc2c1c(=O)n(CCCn1c(=O)c3nc[nH]c3n(C)c1=O)c(=O)n2C | inhibition [7]: 98%; Ki [5]: 0.26 µM |
| – | – | – | > 50 | CNC(=O)NC(=N)NCCCCCCCCN1CCCc2ccccc2COc2cc(C)ccc2CNC(=N)NC1=O | – |
| – | – | – | > 50 | CNC(=S)NC(=N)NCCCCCCCCN1CCCCCCOc2ccccc2CNC(=N)NC1=O | – |
| 23100 (≈ 38.6 mM) | < 0.5 | 91.5 | – | CNC(=O)NC(=N)NCCCCCCCCN1CCCc2cc(Cl)ccc2COc2ccccc2CNC(=N)NC1=O | – |
| 2010 (≈ 3.57 mM) | < 0.5 | 76.2 | – | CNC(=O)NC(=N)NCCCCCCCCN1CCCc2ccccc2COc2ccccc2CNC(=N)NC1=O | – |
| 1810 (≈ 3.6 mM) | < 0.5 | 80.9 | – | CNC(=O)NC(=N)NCCCCCCCCN1CCCCCOc2ccccc2CNC(=N)NC1=O | – |
